These results are taken from ChEMBL document CHEMBL4184261, “Activation loop targeting strategy for design of receptor-interacting protein kinase 2 (RIPK2) inhibitors” (Bioorg Med Chem Lett, 2018).

The target in assay [1] is Receptor-interacting serine/threonine-protein kinase 2 (Homo sapiens) (UniProt O43353). Briefly: Inhibition of wild type recombinant human His6-tagged RIPK2 at 0.5 uM using RS repeat peptide substrate incubated for 2 hrs by ADP-Glo assay. (ADP-Glo first removes unused ATP, then detects ADP through luciferase.)
The test system of assay [2] is Receptor-interacting serine/threonine-protein kinase 2 (Homo sapiens), O43353 [R171C]. Description: Inhibition of recombinant human His6-tagged RIPK2 R171C mutant at 5 uM using RS repeat peptide substrate incubated for 2 hrs by ADP-Glo assay.
In assay [3] the target is Receptor-interacting serine/threonine-protein kinase 2 (Homo sapiens) (UniProt O43353). Briefly: Inhibition of wild type recombinant human His6-tagged RIPK2 at 5 uM using RS repeat peptide substrate incubated for 2 hrs by ADP-Glo assay.
Assay [4] shares this target. Briefly: Inhibition of wild type recombinant human His6-tagged RIPK2 at 10 uM using RS repeat peptide substrate incubated for 2 hrs by ADP-Glo assay.
Assay [5] is filed under the species Homo sapiens. Briefly: Selectivity index, ratio of inhibition of N-terminal GST tagged recombinant human KDR (789 to end residues) expressed in baculovirus infected Sf9 cells to inhibition of wild type recombinant human His6-tagged RIPK2.
The target in assay [6] is Vascular endothelial growth factor receptor 2 (Homo sapiens) (UniProt P35968). Description: Inhibition of N-terminal GST tagged recombinant human KDR (789 to end residues) expressed in baculovirus infected Sf9 cells at 20 uM using poly-E4Y1 substrate incubated for 2 hrs by ADP-Glo assay.
The species named for assay [7] is Homo sapiens. Briefly: Selectivity index, ratio of IC50 for recombinant human His6-tagged RIPK2 R171C mutant to IC50 for wild type recombinant human His6-tagged RIPK2.

Active and inactive are the calls of the source. The rule behind the calls is not given here. A value given as a limit tells only on which side of the number the result lay.

Chain of Receptor-interacting serine/threonine-protein kinase 2 (Homo sapiens) (O43353 whole entry): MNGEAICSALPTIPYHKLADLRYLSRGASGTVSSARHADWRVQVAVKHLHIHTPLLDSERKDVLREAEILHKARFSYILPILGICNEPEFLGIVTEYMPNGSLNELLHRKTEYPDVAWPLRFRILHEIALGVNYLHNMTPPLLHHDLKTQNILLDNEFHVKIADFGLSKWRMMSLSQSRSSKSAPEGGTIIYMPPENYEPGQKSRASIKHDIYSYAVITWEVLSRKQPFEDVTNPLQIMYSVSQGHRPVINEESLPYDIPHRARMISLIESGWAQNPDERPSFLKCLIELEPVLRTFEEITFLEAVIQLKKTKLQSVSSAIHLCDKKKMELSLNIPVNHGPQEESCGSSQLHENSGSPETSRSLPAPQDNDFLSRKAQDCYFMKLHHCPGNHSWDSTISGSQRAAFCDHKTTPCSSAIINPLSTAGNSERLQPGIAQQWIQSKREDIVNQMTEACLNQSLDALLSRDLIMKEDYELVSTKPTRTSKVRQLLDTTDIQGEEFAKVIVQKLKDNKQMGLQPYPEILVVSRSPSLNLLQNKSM
Chain of Receptor-interacting serine/threonine-protein kinase 2 (Homo sapiens), O43353 [R171C] (O43353 whole entry R171C): as the sequence (O43353 whole entry) above, with R171C counted along it
Chain of Vascular endothelial growth factor receptor 2 (Homo sapiens) (P35968 whole entry): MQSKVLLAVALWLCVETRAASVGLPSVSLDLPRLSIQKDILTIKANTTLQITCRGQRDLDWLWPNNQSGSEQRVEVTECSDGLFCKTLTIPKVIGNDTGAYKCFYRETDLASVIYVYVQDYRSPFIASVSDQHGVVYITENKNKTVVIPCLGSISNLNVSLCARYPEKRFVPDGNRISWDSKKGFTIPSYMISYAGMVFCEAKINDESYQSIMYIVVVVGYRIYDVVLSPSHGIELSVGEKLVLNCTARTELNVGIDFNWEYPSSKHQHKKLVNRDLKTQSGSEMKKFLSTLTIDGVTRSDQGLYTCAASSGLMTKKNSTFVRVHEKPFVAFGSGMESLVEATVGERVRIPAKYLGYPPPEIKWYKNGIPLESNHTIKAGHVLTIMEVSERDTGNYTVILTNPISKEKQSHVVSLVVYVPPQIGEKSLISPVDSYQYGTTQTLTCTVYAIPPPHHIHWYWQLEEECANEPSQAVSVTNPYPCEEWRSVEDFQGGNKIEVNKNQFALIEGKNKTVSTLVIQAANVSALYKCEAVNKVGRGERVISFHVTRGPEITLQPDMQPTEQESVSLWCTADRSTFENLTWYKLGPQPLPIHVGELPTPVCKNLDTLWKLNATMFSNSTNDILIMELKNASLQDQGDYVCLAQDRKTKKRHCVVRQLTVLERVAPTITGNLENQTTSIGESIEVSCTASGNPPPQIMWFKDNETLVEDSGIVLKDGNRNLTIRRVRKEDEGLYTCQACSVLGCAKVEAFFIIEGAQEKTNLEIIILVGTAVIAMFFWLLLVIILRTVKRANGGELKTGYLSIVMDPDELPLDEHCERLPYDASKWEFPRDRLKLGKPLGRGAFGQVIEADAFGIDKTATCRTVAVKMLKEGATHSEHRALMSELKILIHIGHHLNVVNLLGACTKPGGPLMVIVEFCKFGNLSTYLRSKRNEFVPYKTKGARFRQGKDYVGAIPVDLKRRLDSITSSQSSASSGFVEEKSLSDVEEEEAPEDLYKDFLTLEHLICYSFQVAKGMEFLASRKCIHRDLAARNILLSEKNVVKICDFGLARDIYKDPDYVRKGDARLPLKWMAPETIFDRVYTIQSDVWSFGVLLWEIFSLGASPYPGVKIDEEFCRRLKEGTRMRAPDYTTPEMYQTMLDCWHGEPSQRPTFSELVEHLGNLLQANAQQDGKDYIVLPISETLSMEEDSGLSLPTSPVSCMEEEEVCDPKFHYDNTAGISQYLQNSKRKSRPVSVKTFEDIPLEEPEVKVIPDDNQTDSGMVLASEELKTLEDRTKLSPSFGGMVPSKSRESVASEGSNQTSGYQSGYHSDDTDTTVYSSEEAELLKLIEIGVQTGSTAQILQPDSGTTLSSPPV

As to `CNC(=O)c1cc(Oc2ccc(NC(=O)Nc3cccc(CCN)c3)c(F)c2)ccn1`, the inhibition in assay [1] is 12%.

In the case of `CNC(=O)c1cc(Oc2ccc(NC(=O)Nc3cccc(CC(=O)O)c3)c(F)c2)ccn1`, the inhibition result in assay [2] and in assay [3] was “inactive” in each case.

As to `Nc1ccc(SCC(=O)O)c(F)c1`, the inhibition in assay [4] came to 10%. For `CNC(=O)c1cc(Oc2ccc(NC(=O)Nc3ccc(N4CC(=O)NS4(=O)=O)c(C)c3)c(F)c2)ccn1`, in assay [1], the inhibition came out at 1%. `CNC(=O)c1cc(Oc2ccc(NC(=O)Nc3ccc(CC(=O)O)cc3)c(F)c2)ccn1`: the inhibition in assay [3] was 18%. As to `CNC(=O)c1cc(Oc2ccc(NC(=O)Nc3ccc(C(=O)O)cc3)c(F)c2)ccn1`, in assay [1], the inhibition entry is “inactive”.

`CNC(=O)c1cc(Oc2ccc(NC(=O)Nc3cccc(SCC(=O)O)c3)c(F)c2)ccn1`: in assay [3], the inhibition came to 25%. Turning to `CNC(=O)c1cc(Oc2ccc(NC(=O)Nc3ccc(OCCS(C)(=O)=O)c(C)c3)c(F)c2)ccn1`, the inhibition in assay [1] came to 35%. For the compound `CNC(=O)c1cc(Oc2ccc(NC(=O)Nc3cccc(C(C)(C)C(=O)O)c3)c(F)c2)ccn1`, the inhibition in assay [3] is 47%.

For the compound `CNC(=O)c1cc(Oc2ccc(NC(=O)Nc3ccc(SCC(=O)O)cc3)c(F)c2)ccn1`, the figures for the inhibition in assay [2] and in assay [3] were 17% and 27%, respectively.

For `CNC(=O)c1cc(Oc2ccc(NC(=O)Nc3cccc(C(C)(C)N)c3)c(F)c2)ccn1`, the inhibition in assay [1] amounted to 32%.

`CNC(=O)c1cc(Oc2ccc(NC(=O)Nc3cccc(C(=O)O)c3)c(F)c2)ccn1`: the inhibition result in assay [1] is “inactive”. With `CNC(=O)c1cc(Oc2ccc(NC(=O)Nc3ccc(SCC(=O)O)c(F)c3)c(F)c2)ccn1`, the inhibition amounted to 64% in assay [2], 70% in assay [3] and 35.8% in assay [6]. Further, the Selectivity Index in the assay listed under Homo sapiens [5] is more than 10. In addition, the Ratio IC50 in the assay listed under Homo sapiens [7] turned out to be 2.

By inhibition is commonly meant the drop in the measured response relative to a control, in per cent.
